# Experimental data taken from article PMC9283466, “In silico identification of two peptides with antibacterial activity against multidrug-resistant Staphylococcus aureus” (NPJ Biofilms and Microbiomes, 2022).
# Where two headings read alike, the source gives them in different places.
# Legend:
# [1] = tested on: LTA-driven NF-kB activation, eLUCidate Raw 264.7 NF-kB reporter cell line; experiment: Anti-inflammatory activity, NF-kB luciferase reporter; type: cell-based, murine; settings: 10 µg/ml LTA from S. aureus, 6 h
# Protocol: (§1) The inhibitory activity of HG2, HG4 and comparator compounds against LPS and LTA was assessed using eLUCidate™ Raw 264.7 NF-kB reporter cell line (AMSBIO) as previously described. The eLUCidate NF-kB reporter cell line is a stably transfected Raw 264.7 cell line which expresses the Renilla luciferase reporter gene under the transcriptional control of the NF-kB response element, a key transcription factor involved in immune and inflammatory responses. This reporter cell line has been used to measure the induction of various toll-like receptors (TLR) by ligands, including LPS and LTA, therefore providing an effective way to evaluate inhibitors of their activations. Briefly, cells were grown and maintained following the manufacturer’s instructions in Dulbecco’s modified essential medium (DMEM) supplemented with 10% fetal calf serum (FCS), 1% L-glutamine, 1% antibiotics (Invitrogen) and containing 3 µg/ml of puromycin (Sigma-Aldrich, UK). To test the inhibitory activity of HG2 and HG4 on LPS or LTA-driven NF-kB activation, eLUCidate™ Raw 264.7 cells grown on 75 cm^2 flasks were detached using trypsin-EDTA solution (Thermofisher, UK) and seeded into 96-well cell culture plates (Greiner Bio-one, UK) at ~25,000 cells per well (counted using Mallasez’s chamber). The next day, wells were emptied, and cells were exposed to optimal concentrations of LPS or LTA determined from preliminary experiments, (i.e. 10 ng/ml of LPS from E. coli or 10 µg/ml of LTA from S. aureus (Invivogen, UK)) in the presence of increasing concentrations of HG2 or HG4 (from 0 to 500 µg/ml, serial 1:2 dilutions). Pyrrolidine dithiocarbamate (PDTC, 100 µM) and polymyxin B (PMB, 100 µM) (Sigma-Aldrich, UK) were used as positive controls based on their well-known activity as anti-inflammatory molecules and blockers/neutralisers of LPS and LTA, respectively. Importantly, all steps were performed using non-pyrogenic plastics and RNase/DNase molecular biology tips to limit the risk of the presence of a trace of LPS/LTA. After 6 h incubation at 37 °C and 5% CO2, wells were emptied, and the cells were treated with 70 µl of ice-cold PBS containing 1% Triton X-100. After 10 min incubation on ice under orbital shaking at 200 rpm, 50 µL of cell lysates were collected and transferred into white 96-well luminescence plates (Dominique Dutscher) already containing 100 µL of Renilla luciferase substrate (Yelen, France). Luminescence signals of the wells were immediately measured using a microplate reader (Biotek Synergy Mx, UK). The luminescence values were expressed as a percentage of control inflammation corresponding to values obtained after treatment with LPS or LTA in the absence of an inhibitor. The IC50 values of PDTC, PMB, HG2 or HG4 on LPS or LTA-mediated inflammation (i.e. the concentration of molecule causing a reduction of 50% of the luciferase’s induction caused by LPS or LTA) were calculated using GraphPad® Prism 7 software.
# [2] = tested on: LPS-driven NF-kB activation, eLUCidate Raw 264.7 NF-kB reporter cell line; experiment: as above; type: cell-based, murine; settings: 10 ng/ml LPS from E. coli, 6 h
# Protocol: as §1
# [3] = tested on: L. monocytogenes NCTC 11994; experiment: microbe, parasite or virus in culture; type: cell-based, Listeria monocytogenes
# Protocol: (§2) To determine the antimicrobial activity of the new antimicrobial peptides, HG2 and HG4, their minimum inhibitory concentrations (MICs) were determined by broth microdilution method[51] in cation adjusted Mueller Hinton broth (MHB) following the International Organisation for Standardisation (ISO) 20776-1 standard for MIC testing using a final bacterial inoculum of 5 × 10^5 CFU/ml[52]. […] The peptides dissolved in sterile distilled water were added to bacteria culture and incubated overnight at appropriate conditions. The MICs of the peptides and comparator antibiotics were recorded after 18–24 h. The minimum bactericidal concentrations (MBCs) were also determined and were taken as the lowest concentration of the antimicrobial that prevented the growth of bacterial cells after the subculture of cells (from MIC treatment) onto antibiotic-free media.
# [4] = tested on: Sal. typhimurium SL1344; experiment: microbe, parasite or virus in culture; type: cell-based, Salmonella enterica serovar Typhimurium
# Protocol: as §2
# [5] = tested on: S. aureus RN4220; experiment: MIC, broth microdilution; type: cell-based, Staphylococcus aureus; settings: sensitive
# Protocol: as §2
# [6] = tested on: Ent. faecalis JH2-2; experiment: microbe, parasite or virus in culture; type: cell-based, Enterococcus faecalis
# Protocol: as §2
# [7] = tested on: S. aureus EMRSA-15; experiment: microbe, parasite or virus in culture; type: cell-based, Staphylococcus aureus
# Protocol: as §2
# [8] = tested on: S. aureus ATCC 33591; experiment: microbe, parasite or virus in culture; type: cell-based, Staphylococcus aureus; settings: Staphylococcus aureus, ATCC 33591 / MRSA
# Protocol: as §2
# [9] = tested on: S. aureus USA300 BAA-1717; experiment: microbe, parasite or virus in culture; type: cell-based, Staphylococcus aureus; settings: Staphylococcus aureus, BAA-1717 / MRSA / USA300
# Protocol: as §2
# [10] = tested on: MRSA USA300 cells; experiment: Time-kill kinetics; type: cell-based, Staphylococcus aureus; settings: 3x MIC, comparator antibiotics, time not stated
# Protocol: The bactericidal activity of HG2, HG4 and comparator antimicrobial compounds was assessed using exponential-phase cultures[14] of MRSA USA300 grown in MHB (1 × 10^6-8 CFU/ml). […] Samples were taken at different time points, serially diluted and inoculated onto MH agar plates using the spread plate technique. After overnight incubation, the colony-forming units per millilitre of cell culture (CFU/ml) was calculated. Experiments were performed in quadruplicates.
# [11] = tested on: P. aeruginosa PA01; experiment: microbe, parasite or virus in culture; type: cell-based, Pseudomonas aeruginosa
# Protocol: as §2
# [12] = tested on: E. coli K12; experiment: microbe, parasite or virus in culture; type: cell-based, Escherichia coli
# Protocol: as §2
# [13] = tested on: List. monocytogenes; experiment: microbe, parasite or virus in culture; type: cell-based, Listeria monocytogenes; settings: List. monocytogenes; Supplementary Table 5
# Protocol: as §2
# [14] = tested on: A. baumannii (IMI, MER resistant; strain ID not given); experiment: microbe, parasite or virus in culture; type: cell-based, Acinetobacter baumannii; settings: A. baumannii, no strain ID, MER
# Protocol: as §2
# [15] = tested on: A. baumannii 515785; experiment: microbe, parasite or virus in culture; type: cell-based, Acinetobacter baumannii; settings: A. baumannii 515785; OXA-23, OXA-50
# Protocol: as §2
# [16] = tested on: A. baumannii 515722; experiment: microbe, parasite or virus in culture; type: cell-based, Acinetobacter baumannii; settings: A. baumannii 515722; sensitive
# Protocol: as §2
# [17] = tested on: A. baumannii 515908; experiment: microbe, parasite or virus in culture; type: cell-based, Acinetobacter baumannii; settings: A. baumannii 515908; sensitive
# Protocol: as §2
# [18] = tested on: Sal. typhimurium; experiment: microbe, parasite or virus in culture; type: cell-based, Salmonella enterica serovar Typhimurium; settings: Sal. typhimurium; Supplementary Table 5
# Protocol: as §2
# [19] = tested on: Ent. faecalis; experiment: microbe, parasite or virus in culture; type: cell-based, Enterococcus faecalis; settings: Ent. faecalis; Supplementary Table 5
# Protocol: as §2
# [20] = tested on: S. aureus; experiment: microbe, parasite or virus in culture; type: cell-based, Staphylococcus aureus; settings: S. aureus; Supplementary Table 5
# Protocol: as §2
# [21] = tested on: EMRA-15; experiment: microbe, parasite or virus in culture; type: cell-based, Staphylococcus aureus; settings: EMRA-15; Supplementary Table 5
# Protocol: as §2
# [22] = tested on: K. pneumoniae ATCC 700603; experiment: microbe, parasite or virus in culture; type: cell-based, Klebsiella pneumoniae; settings: K. pneumoniae ATCC 700603; SHV-18
# Protocol: as §2
# [23] = tested on: K. pneumoniae NCTC 13442; experiment: microbe, parasite or virus in culture; type: cell-based, Klebsiella pneumoniae; settings: K. pneumoniae NCTC 13442; OXA-48
# Protocol: as §2
# [24] = tested on: K. pneumoniae 526903; experiment: microbe, parasite or virus in culture; type: cell-based, Klebsiella pneumoniae; settings: K. pneumoniae 526903; sensitive
# Protocol: as §2
# [25] = tested on: K. pneumoniae 518842; experiment: microbe, parasite or virus in culture; type: cell-based, Klebsiella pneumoniae; settings: K. pneumoniae 518842; CTX-M
# Protocol: as §2
# [26] = tested on: P. aeruginosa; experiment: microbe, parasite or virus in culture; type: cell-based, Pseudomonas aeruginosa; settings: P. aeruginosa; Supplementary Table 5
# Protocol: as §2
# [27] = tested on: P. aeruginosa (CF) C3719; experiment: microbe, parasite or virus in culture; type: cell-based, Pseudomonas aeruginosa; settings: P. aeruginosa (CF) C3719
# Protocol: as §2
# [28] = tested on: P. aeruginosa (CF) LES400; experiment: microbe, parasite or virus in culture; type: cell-based, Pseudomonas aeruginosa; settings: P. aeruginosa (CF) LES400
# Protocol: as §2
# [29] = tested on: P. aeruginosa (CF) AMT0060; experiment: microbe, parasite or virus in culture; type: cell-based, Pseudomonas aeruginosa; settings: P. aeruginosa (CF) AMT0060
# Protocol: as §2
# [30] = tested on: E. coli; experiment: microbe, parasite or virus in culture; type: cell-based, Escherichia coli; settings: E. coli; Supplementary Table 5
# Protocol: as §2
molecule,measurement,setting,value
"S=C(S)N1CCCC1 [PDTC, Pyrrolidine dithiocarbamate, reference compound]",IC50,"[1]; Mus musculus, RAW264.7, read-out: IC50, LTA-mediated inflammation",10.8 ± 1.29 µg/mL
same,IC50,"[2]; Mus musculus, RAW264.7, read-out: IC50, LPS-mediated inflammation",10.7 ± 1.2 µg/mL
CN[C@H](CC(C)C)C(=O)N[C@H]1C(=O)N[C@@H](CC(N)=O)C(=O)N[C@H]2C(=O)N[C@H]3C(=O)N[C@H](C(=O)N[C@H](C(=O)O)c4cc(O)cc(O)c4-c4cc3ccc4O)[C@H](O)c3ccc(c(Cl)c3)Oc3cc2cc(c3O[C@@H]2O[C@H](CO)[C@@H](O)[C@H](O)[C@H]2O[C@H]2C[C@](C)(N)[C@H](O)[C@H](C)O2)Oc2ccc(cc2Cl)[C@H]1O [Vancomycin],MIC,"[3]; Listeria monocytogenes, NCTC11994",64 µg/mL
same,MIC,"[4]; Salmonella enterica, TYPHIMURIUM",256 µg/mL
same,MIC,"[5]; Staphylococcus aureus, read-out: MIC",1 µg/mL
same,MIC,"[6]; Enterococcus faecalis, JH22",64 µg/mL
same,MIC,"[7]; Staphylococcus aureus, MRSA",2 µg/mL
same,MIC,[8],2 µg/mL
same,MIC,[9],2 µg/mL
same,reduction in viable cells (time-kill),[10],≥ 2 log10 CFU/ml
same,MIC,"[11]; Pseudomonas aeruginosa, PA01",64 µg/mL
same,MIC,"[12]; Escherichia coli, K12",128 µg/mL
polymyxin B [reference compound],MIC,[3]; L. monocytogenes NCTC 11994,64 µg/mL
same,Minimum inhibitory Concentrations MICs,[13],62.5 µg/mL
same,MIC,[14],0.25 µg/mL
same,MIC,[15],0.5 µg/mL
same,MIC,[16],0.25 µg/mL
same,MIC,[17],0.5 µg/mL
same,MIC,[4]; Sal. typhimurium SL1344,2 µg/mL
same,Minimum inhibitory Concentrations MICs,[18],1.95 µg/mL
same,MIC,[5],256 µg/mL
same,MIC,[6]; Ent. faecalis JH2-2,32 µg/mL
same,Minimum inhibitory Concentrations MICs,[19],31.25 µg/mL
same,MIC,"[7]; S. aureus EMRSA-15, resistances MRSA, Cip",256 µg/mL
same,Minimum inhibitory Concentrations MICs,[20],250 µg/mL
same,Minimum inhibitory Concentrations MICs,[21],250 µg/mL
same,MIC,[22],2 µg/mL
same,MIC,[23],8 µg/mL
same,MIC,[24],4 µg/mL
same,MIC,[25],2 µg/mL
same,Minimum inhibitory Concentrations MICs,[26],1.95 µg/mL
same,MIC,[27],1 µg/mL
same,MIC,[28],1 µg/mL
same,MIC,[11]; P. aeruginosa PA01,2 µg/mL
same,MIC,[29],0.5 µg/mL
same,"IC50, LTA-mediated inflammation",[1],61.34 ± 3.47 µg/mL
same,"IC50, LPS-mediated inflammation",[2],62.26 ± 4.01 µg/mL
same,MIC,[12]; E. coli K12,2 µg/mL
same,Minimum inhibitory Concentrations MICs,[30],1.95 µg/mL
